# In patent publication US20230190935A1, “Blood pathogen inactivation method” (Institute of Blood Transfusion CAMS, priority 2021, published 2023):
# Tested on: S. aureus
# Experiment: Pathogen inactivation in plasma spiked with S. aureus: combinations of low-frequency sonication, UV light and riboflavin
# Format: cell-based
# Conditions: for growth of S. aureus after treatment: n = 6
smiles,measurement,setting,value
Cc1cc2nc3c(=O)[nH]c(=O)nc-3n(C[C@H](O)[C@H](O)[C@H](O)CO)c2cc1C [riboflavin],growth of S. aureus after treatment,"Riboflavin-containing sample (50 µmol/L, plasma) + low-frequency sonication 30 KHz, no illumination, table row 0.27 J/mL, 10 min",5.84 ± 0.18 log
same,growth of S. aureus after treatment,"Riboflavin-containing sample (50 µmol/L, plasma) + low-frequency sonication 30 KHz, no illumination, table row 0.54 J/mL, 20 min",5.72 ± 0.30 log
same,growth of S. aureus after treatment,"Riboflavin-containing sample (50 µmol/L, plasma) + low-frequency sonication 30 KHz, no illumination, table row 0.81 J/mL, 30 min",5.67 ± 0.32 log
same,growth of S. aureus after treatment,"Sonication (30 KHz) + UV light (311 ± 50 nm) + riboflavin 50 µmol/L in plasma, light energy 0.27 J/mL, 10 min",4.48 ± 0.46 log
same,growth of S. aureus after treatment,"Sonication (30 KHz) + UV light (311 ± 50 nm) + riboflavin 50 µmol/L in plasma, light energy 0.54 J/mL, 20 min",2.04 ± 0.71 log
same,growth of S. aureus after treatment,"Sonication (30 KHz) + UV light (311 ± 50 nm) + riboflavin 50 µmol/L in plasma, light energy 0.81 J/mL, 30 min",1.28 ± 0.66 log
same,growth of S. aureus after treatment,"UV light (311 ± 50 nm) + riboflavin 50 µmol/L in plasma, no sonication, light energy 0.27 J/mL, 10 min",5.41 ± 0.029 log
same,growth of S. aureus after treatment,"UV light (311 ± 50 nm) + riboflavin 50 µmol/L in plasma, no sonication, light energy 0.54 J/mL, 20 min",5.66 ± 0.09 log
same,growth of S. aureus after treatment,"UV light (311 ± 50 nm) + riboflavin 50 µmol/L in plasma, no sonication, light energy 0.81 J/mL, 30 min",5.23 ± 0.16 log
same,pathogen inactivation effect (in words),"UV light + riboflavin group, 0.81 J/mL",no inactivation effect
same,effect of combining low-frequency sonication with riboflavin photochemical method (in words),low-frequency sonication + UV light + riboflavin,synergistic effect
same,pathogen inactivation effect (in words),sonication + UV light + riboflavin group,strong pathogen inactivation effect
same,pathogen inactivation effect (in words),"sonication + riboflavin group, 0.81 J/mL",no inactivation effect
